Five compounds from patent US8512943B2, “Accessing the toxic potential of nanomaterials” (The Regents of the University of California, priority 2005, dated 2013) can be followed below.

Data set [1] deals with RAW 264.7 cells.
Procedure: Electron microscopy was performed as previously described (Yang A H, et al., In Vitro Cell Dev Biol 23:34-46, 1987). Thin sections were cut with a Reichert-Jung ultracut and ultramicrotome (Leica, Stuttgart, Germany). Copper grids were stained with lead citrate and uranyl acetate and photographed in a Hitachi electron microscope (Hitachi Instrument Inc., Tokyo, Japan).
Data set [2] relates to RAW 264.7 cells. The data set is described as follows: Propidium iodide (PI) uptake, cellular toxicity. Type of data set: cell-based. As for the experimental part: (§1) Cells were stained with the fluorescent dyes diluted in DMEM. The following dye combinations were added for 15-30 min at 37° C. in the dark: (i) 47.5 μg/ml propidium iodide (PI) in 200 μl DMEM (assessment of cell death); (ii) 20 nM DiOC6 (assessment of Δψm); (iii) 2 μM MitoSOX™ red (superoxide generation) or 2 μM hydroethidine (HE, superoxide production); (iv) 2.5 μM 2,7 dichlorofluorescein (DCF, mostly assesses H2O2 production); (v) 5 μM Fluo-3 (assess cytoplasmic free calcium); (vi) 4 μM Rhod-2 (mitochondrial free calcium); (vii) 40 μM monobromobimane (MBB, assess intracellular thiol levels). Flow cytometry was performed using a FACScan (Becton Dickinson, Mountain View, Calif.) equipped with a single 488 nm argon laser. DiOC6 and Fluo-3 fluorescence were analyzed in the FL-1 channel, while PI, Rhod-2 and MitoSOX red fluorescence were analyzed in FL-2. HE fluorescence was analyzed using FL-3 channels. Monobromobimane fluorescence was excited by the UV laser tuned to 325 nm, and emission was measured at 510 nm (FL-4 channel) in the LSR flow cytometer. Forward and side scatter were used to gate out cellular fragments.
Large-scale PTP opening leads to mitochondrial depolarization, O2.^− production and the release of pro-apoptotic factors. Cellular toxicity was assessed by PI staining (FIG. 18C).

The next data set has as its system HO-1. In words: HO-1 expression by immunoblotting. Type of data set: cell-based, mouse.
A further data set concerns TNF-α. In words: TNF-α production by ELISA. Type of data set: cell-based, mouse. An excerpt:
Triplicate aliquots of RAW 264.7 cells were exposed to NP for 6 hr. The culture media were collected, centrifuged to remove all debris and the resultant supernatant assayed by ELISA for TNF-α and Western blotting for Jun kinase.

The test system of data set [3] is RAW 264.7 cells. The data set is described as follows: DCF fluorescence (H2O2 production), flow cytometry. Type of data set: cell-based, mouse. A general note: In flow cytometry, cells or beads pass a laser one at a time.
Procedure: (§2) RAW 264.7 cells were cultured in a 5% CO2 in Dulbecco's Modified Eagle Medium (DMEM) containing 10% FCS, 5000 U/ml penicillin, 500 μg/ml streptomycin, and 2 mM L-glutamine (complete medium). For exposure to NP, aliquots of 3×10^5 cells were cultured in 24-well plates in 0.5 ml of medium at 37° C. for the indicated time periods. All the NP solutions were prepared fresh from stock solutions (10 mg/ml) and the solutions were sonicated for 10 sec before addition to cell cultures.
Cells were stained with the fluorescent dyes diluted in DMEM. […] DiOC6 and Fluo-3 fluorescence were analyzed in the FL-1 channel, while PI, Rhod-2 and MitoSOX red fluorescence were analyzed in FL-2. HE fluorescence was analyzed using FL-3 channels. Monobromobimane fluorescence was excited by the UV laser tuned to 325 nm, and emission was measured at 510 nm (FL-4 channel) in the LSR flow cytometer. […]
The fold-increase in mean fluorescence intensity (MFI) of DCF was expressed as the ratio of particle-treated vs. control cells (FIG. 8A).
Data set [4] has as its system RAW 264.7 cells. The data set is described as follows: MitoSOX Red fluorescence (mitochondrial superoxide production), flow cytometry. Type of data set: cell-based, mouse.
Procedure: as §2
Data set [5] deals with RAW 264.7 cells. In words: DiOC6 fluorescence, mitochondrial membrane potential (Δψm). Type of data set: cell-based. As for the experimental part:
as §1
Toxic oxidative stress can perturb mitochondrial function in a number of ways, including disruption of electron flow in the inner membrane, dissipation of the mitochondrial membrane potential (Δψm), mitochondrial Ca^2+ uptake, and large-scale opening of the PTP. […]

Procedure for HO-1: GAPDH immunoblotting was used to ascertain equal protein loading (lower panels).
For Western blotting, 100 μg of total protein was separated by 10% SDS-PAGE and transferred to a PVDF membrane. After blocking, the membranes were incubated with primary antibodies against HO-1, phospho-JNK or JNK. The membranes were overlayed with secondary antibody before the addition of the HRP-conjugated avidin-biotin complex. The proteins were detected using ECL reagent according to the manufacturer's instructions. Protein abundance was quantified by densitometric scanning using a laser Personal Densitometer SI and Image Quant software (Amersham Biosciences).

Regarding Carbon Black, the “cellular uptake, subcellular localization and mitochondrial damage” value in the data set with RAW 264.7 cells [1] was “taken up in phagosomes without mitochondrial damage”.
For the compound `CC(=O)N[C@@H](CS)C(=O)O` [NAC, N-acetylcysteine], the “effect on cytotoxicity of UFP and NH2-PS” value with RAW 264.7 cells [2] was “could interfere”. Besides, the “effect on induction of HO-1 expression by NP” value with HO-1 was “suppressed”. Moreover, the “effect on UFP-induced TNF-α production” value in the data set with TNF-α (pre-treatment 2 hr, then UFP 6 hr) was “capable of interfering”. In the data set on RAW 264.7 cells [3], the “effect on ROS production by NH2-PS particles” value is “effectively disrupted”. Moreover, in the data set with RAW 264.7 cells [3] (pretreatment, 4 and 16 hrs), the “effect on UFP-induced H2O2 production” value is listed as “significantly suppressed”. For the same compound, the “effect on NH2-PS ROS response” value with RAW 264.7 cells [4] (8 hrs) is recorded as “failed to suppress”; in the data set on RAW 264.7 cells [4] (16 hrs), “did interfere”. In addition, the “effect on UFP-induced O2.− generation” value with RAW 264.7 cells [4] (all time points) is “could interfere”.
As for `C[S+]([O-])CCCCN=C=S` (stereo not drawn) [SFN, Sulforaphane], the “HO-1 expression after prior treatment” value in the data set with HO-1 (without NP) is listed as “resulted in HO-1 expression”. The “effect of prior treatment on TNF-α production” value in the data set on TNF-α (pre-treatment 4 hr, then UFP 6 hr) was “interference”.
As to titanium dioxide [TiO2], in the data set with RAW 264.7 cells [5], the “DiOC6 fluorescence (Δψm)” value is listed as “failed to exert an influence”. In the data set with RAW 264.7 cells [1], the “cellular uptake, subcellular localization and mitochondrial damage” value is reported as “taken up into loose-fitting phagosomes without noticeable mitochondrial damage”.
As for Polymyxin B [PMB], in the data set with TNF-α (6 hr), the “effect on LPS-induced TNF-α response” value is “significant suppression” and the “effect on UFP TNF-α response” value is reported as “small effect”.
